Test results published in ChEMBL document CHEMBL1201862, “PubChem BioAssay data set” (2004).
Activity calls are given as the source filed them. Rule as the data show it, for most assays here: actives have a measured EC50 and inactives only a lower limit.

What was measured:
[1] = viability of PTEN-deleted HCT116 cells – cell-based, HCT116 PTEN knockout, dose response (AID 1047); format: functional;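 also: HCT116 colon tumor cells with PTEN knocked out; cells exposed to compound for 60 hours before readout; potency for loss of cell viability measured by luminescence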
[2] = target: Cytochrome P450 2C9 (Homo sapiens, UniProt P11712)
Cytochrome P450 2C9, sequence (P11712 whole entry): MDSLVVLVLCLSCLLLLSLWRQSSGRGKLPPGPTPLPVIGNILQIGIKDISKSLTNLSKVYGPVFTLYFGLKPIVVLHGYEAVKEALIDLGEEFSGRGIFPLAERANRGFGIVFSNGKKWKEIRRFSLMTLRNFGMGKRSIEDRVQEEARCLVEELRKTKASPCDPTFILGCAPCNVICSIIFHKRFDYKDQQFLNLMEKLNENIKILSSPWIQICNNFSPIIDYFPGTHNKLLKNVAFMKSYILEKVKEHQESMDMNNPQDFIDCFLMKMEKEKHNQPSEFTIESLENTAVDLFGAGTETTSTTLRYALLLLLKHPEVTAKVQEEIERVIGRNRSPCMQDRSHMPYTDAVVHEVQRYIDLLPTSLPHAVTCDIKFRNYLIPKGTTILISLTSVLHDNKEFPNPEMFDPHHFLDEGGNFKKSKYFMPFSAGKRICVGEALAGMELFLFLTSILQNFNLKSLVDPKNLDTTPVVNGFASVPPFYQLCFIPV

[3] = viability of HCT116 lacking mutant beta-catenin – cell-based, human colon tumor, dose response (AID 1045); format: functional;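 also: HCT116 colon tumor cells with beta catenin knocked out; cells exposed to compound for 60 hours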
[4] = target: T1, Fatty acid synthase (Homo sapiens, UniProt P49327); experiment: inhibition of human FAS-TE enzyme activity – biochemical, endpoint fluorescence intensity, uHTS hits, dose response (AID 624327); format: functional;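 also: fluorescence from hydrolysis of an O-methyl fluorescein acyl ester substrate by the enzyme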
T1 sequence (P49327 whole entry): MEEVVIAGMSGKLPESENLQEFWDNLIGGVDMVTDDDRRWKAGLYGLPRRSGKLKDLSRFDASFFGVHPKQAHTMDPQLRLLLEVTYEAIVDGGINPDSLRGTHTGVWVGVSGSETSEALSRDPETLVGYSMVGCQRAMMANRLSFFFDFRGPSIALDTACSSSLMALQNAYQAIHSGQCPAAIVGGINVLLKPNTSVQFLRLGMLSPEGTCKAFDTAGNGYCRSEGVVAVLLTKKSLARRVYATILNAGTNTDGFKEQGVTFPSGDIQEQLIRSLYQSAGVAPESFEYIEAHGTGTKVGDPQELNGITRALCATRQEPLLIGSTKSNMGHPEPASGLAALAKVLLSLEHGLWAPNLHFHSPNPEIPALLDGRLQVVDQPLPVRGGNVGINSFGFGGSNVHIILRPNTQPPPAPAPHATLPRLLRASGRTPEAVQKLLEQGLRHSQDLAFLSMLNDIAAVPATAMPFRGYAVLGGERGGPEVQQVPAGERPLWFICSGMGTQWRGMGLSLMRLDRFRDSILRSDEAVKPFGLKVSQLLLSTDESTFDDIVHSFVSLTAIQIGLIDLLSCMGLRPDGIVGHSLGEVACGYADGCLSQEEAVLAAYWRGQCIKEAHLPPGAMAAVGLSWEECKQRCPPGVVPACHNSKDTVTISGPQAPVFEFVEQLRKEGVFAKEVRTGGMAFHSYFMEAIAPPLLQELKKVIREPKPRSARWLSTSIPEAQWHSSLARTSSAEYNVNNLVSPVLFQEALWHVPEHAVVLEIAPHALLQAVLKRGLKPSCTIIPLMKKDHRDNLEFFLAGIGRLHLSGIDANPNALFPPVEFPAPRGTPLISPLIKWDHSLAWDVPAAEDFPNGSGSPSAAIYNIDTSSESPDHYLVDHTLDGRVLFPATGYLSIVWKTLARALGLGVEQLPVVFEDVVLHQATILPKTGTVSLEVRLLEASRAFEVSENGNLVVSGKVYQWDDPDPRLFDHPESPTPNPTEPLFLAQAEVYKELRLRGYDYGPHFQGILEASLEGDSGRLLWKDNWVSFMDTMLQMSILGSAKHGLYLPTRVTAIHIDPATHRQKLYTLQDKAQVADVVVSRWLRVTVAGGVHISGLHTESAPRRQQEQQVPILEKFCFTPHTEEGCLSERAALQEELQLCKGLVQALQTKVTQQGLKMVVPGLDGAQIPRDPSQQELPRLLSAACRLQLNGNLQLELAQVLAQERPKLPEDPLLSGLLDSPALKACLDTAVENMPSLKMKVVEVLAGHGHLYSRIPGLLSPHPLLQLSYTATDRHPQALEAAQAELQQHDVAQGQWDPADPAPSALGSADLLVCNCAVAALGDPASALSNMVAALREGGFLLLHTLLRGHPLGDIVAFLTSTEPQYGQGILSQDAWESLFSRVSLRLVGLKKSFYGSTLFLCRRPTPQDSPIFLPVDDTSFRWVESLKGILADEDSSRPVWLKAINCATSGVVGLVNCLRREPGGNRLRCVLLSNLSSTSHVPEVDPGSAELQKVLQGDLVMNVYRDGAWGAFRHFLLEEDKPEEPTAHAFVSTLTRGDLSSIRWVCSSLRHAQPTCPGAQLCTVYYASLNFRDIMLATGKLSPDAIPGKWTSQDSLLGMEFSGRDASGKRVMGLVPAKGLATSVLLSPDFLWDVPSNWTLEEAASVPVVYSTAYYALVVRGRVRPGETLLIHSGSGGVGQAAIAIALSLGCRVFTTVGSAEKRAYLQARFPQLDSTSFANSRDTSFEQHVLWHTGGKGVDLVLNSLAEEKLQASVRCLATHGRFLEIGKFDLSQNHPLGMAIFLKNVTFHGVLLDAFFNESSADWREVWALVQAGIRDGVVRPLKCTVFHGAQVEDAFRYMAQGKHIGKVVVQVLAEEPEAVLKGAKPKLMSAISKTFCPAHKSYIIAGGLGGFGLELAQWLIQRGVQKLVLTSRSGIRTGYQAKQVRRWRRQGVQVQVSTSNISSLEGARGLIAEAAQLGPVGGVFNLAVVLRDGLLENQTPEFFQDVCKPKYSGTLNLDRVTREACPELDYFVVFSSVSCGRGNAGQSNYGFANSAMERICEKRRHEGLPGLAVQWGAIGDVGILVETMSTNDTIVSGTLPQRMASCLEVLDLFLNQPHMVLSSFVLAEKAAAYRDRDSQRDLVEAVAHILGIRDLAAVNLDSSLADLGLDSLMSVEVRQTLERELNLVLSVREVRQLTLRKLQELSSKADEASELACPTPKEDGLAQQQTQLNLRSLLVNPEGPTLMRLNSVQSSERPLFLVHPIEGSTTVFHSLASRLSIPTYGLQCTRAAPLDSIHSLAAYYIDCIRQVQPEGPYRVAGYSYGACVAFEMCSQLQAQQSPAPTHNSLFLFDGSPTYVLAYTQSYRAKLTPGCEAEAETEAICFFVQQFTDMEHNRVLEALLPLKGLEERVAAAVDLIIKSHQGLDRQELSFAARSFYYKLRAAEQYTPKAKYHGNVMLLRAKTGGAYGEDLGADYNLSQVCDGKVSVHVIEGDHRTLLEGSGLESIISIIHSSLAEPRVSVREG

[5] = target: T1, Fatty acid synthase; experiment: inhibition of human FAS-TE enzyme activity – biochemical, kinetic fluorescence intensity, dose response (AID 624326); format: functional;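 also: rate of fluorescence rise from hydrolysis of a fluorogenic O-methyl fluorescein ester substrate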
[6] = luciferase reporter signal suppression in cells – H4 neuroglioma cells, luminescence, dose response (AID 1990); format: functional, cell-based
[7] = Luminescence Cell-Based Dose Response HTS to Identify Inhibitors of 5'UTR Stem-Loop Driven Prion Protein mRNA Translation in H4 Neuroglioblastoma Cells. [Related pubchem assays: 1827 (Project Summary), 1813 (Primary HTS)]; format: functional
[8] = target: T2, Streptokinase A (Streptococcus pyogenes serotype M1, UniProt P10520); experiment: viability-normalized secreted streptokinase activity reduction – plasminogen activation absorbance, OD405, dose response (AID 1914); format: functional, Streptococcus pyogenes M1 GAS;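 also: secreted streptokinase activity via plasminogen activation per viability signal from cell pellet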
T2 sequence (P10520 whole entry): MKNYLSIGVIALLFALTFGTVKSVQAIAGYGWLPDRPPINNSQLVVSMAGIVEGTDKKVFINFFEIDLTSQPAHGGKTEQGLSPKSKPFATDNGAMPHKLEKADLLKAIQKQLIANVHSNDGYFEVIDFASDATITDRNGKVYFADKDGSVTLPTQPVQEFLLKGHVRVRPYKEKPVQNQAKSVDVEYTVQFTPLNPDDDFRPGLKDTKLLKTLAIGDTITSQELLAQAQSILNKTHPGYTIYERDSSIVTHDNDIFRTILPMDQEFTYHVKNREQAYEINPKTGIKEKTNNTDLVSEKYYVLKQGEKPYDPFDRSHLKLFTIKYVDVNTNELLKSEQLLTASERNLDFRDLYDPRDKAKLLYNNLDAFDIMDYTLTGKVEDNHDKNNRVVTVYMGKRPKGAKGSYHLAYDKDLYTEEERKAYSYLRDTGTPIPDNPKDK

[9] = test system: Streptococcus sp. 'group A'; experiment: Streptococcus pyogenes SK(-)GAS viability under kanamycin – luminescence, BacTiterGlo, confirmation, counter-screen for streptokinase expression inhibitor project, dose response (AID 1900); format: functional, organism-based
[10] = test system: Streptococcus; experiment: GAS UMAA2166 growth inhibition – luminescence, BacTiterGlo, counter-screen for streptokinase expression inhibitor project, dose response (AID 1915); format: functional, organism-based;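 also: potency for reduction of bacterial viability or growth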
[11] = alpha-synuclein stem-loop luciferase translation blockers – H4 neuroglioma cells, luminescence, confirmation (AID 1988); format: functional, cell-based
[12] = target: Luciferin 4-monooxygenase (Photinus pyralis, UniProt P08659); experiment: inhibition of purified Photinus pyralis luciferase – biochemical, luminescence, dose response (AID 1891)
Luciferin 4-monooxygenase, sequence (P08659 whole entry): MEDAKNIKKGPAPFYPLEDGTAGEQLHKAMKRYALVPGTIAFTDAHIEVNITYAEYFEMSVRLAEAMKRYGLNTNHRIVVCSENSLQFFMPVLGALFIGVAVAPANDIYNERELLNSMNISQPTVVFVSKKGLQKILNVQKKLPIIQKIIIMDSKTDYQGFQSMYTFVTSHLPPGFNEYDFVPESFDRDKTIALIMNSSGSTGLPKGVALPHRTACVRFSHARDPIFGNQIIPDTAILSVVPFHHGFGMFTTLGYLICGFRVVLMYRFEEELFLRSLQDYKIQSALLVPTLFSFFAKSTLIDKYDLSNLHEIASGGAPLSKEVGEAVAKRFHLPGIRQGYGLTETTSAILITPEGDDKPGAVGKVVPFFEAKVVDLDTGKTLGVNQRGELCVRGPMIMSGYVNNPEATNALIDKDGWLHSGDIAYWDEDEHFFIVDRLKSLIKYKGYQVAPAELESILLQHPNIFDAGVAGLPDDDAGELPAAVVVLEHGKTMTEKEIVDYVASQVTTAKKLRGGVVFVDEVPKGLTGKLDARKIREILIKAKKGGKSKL

[13] = Luminescence Cell-Based Dose Confirmation HTS to Identify Inhibitors of Platelet Dense Granule Release. [Related pubchem assays: 1663 (Primary HTS), 1678 (Summary of Project)]; format: functional
[14] = target: T3, Heat shock factor protein 1 (Mus musculus, UniProt P38532); experiment: decrease of HSF1-responsive luciferase luminescence – cell-based, NIH3T3, dose retest, confirmation (AID 2382); format: functional;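 also: NIH3T3 fibroblasts with HSF1-driven luciferase reporter stressed by proteasome inhibitor MG132; luminescence from HSF1-driven luciferase expression after 8 hours of MG132 stress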
T3 sequence (P38532 whole entry): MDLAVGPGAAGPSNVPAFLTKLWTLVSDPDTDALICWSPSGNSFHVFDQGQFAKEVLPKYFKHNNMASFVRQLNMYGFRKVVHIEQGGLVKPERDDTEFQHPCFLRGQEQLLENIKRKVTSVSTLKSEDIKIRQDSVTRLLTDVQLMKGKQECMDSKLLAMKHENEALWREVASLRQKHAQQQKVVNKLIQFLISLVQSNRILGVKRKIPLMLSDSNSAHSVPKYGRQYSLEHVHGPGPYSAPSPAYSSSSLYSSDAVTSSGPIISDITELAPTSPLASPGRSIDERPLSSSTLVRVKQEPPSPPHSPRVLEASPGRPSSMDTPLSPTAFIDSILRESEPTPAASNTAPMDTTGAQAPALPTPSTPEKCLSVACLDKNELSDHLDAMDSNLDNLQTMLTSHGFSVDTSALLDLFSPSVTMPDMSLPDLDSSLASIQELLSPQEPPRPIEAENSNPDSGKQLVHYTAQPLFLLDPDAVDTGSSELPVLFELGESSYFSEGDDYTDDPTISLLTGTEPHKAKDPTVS

[15] = target: T4, Corticotropin-releasing factor receptor 2/Corticotropin-releasing factor-binding protein (Homo sapiens, UniProt P24387+Q13324); experiment: activators of CRF receptor 2 with binding protein – uHTS hits, confirmation (AID 602473); format: functional; conditions: read-out: EC50_Mean
T4 sequence (Q13324 whole entry): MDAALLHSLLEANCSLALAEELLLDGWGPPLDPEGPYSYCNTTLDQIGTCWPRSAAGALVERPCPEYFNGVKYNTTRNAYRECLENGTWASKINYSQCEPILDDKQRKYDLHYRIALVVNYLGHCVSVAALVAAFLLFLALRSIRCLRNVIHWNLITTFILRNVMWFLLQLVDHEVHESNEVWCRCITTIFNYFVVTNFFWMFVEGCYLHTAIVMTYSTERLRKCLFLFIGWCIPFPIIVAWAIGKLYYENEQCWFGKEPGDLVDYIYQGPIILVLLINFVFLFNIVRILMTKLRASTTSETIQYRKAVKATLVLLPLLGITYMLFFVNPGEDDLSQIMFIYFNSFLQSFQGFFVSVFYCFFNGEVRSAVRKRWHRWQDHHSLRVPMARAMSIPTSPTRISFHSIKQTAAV
T4 sequence (P24387 whole entry): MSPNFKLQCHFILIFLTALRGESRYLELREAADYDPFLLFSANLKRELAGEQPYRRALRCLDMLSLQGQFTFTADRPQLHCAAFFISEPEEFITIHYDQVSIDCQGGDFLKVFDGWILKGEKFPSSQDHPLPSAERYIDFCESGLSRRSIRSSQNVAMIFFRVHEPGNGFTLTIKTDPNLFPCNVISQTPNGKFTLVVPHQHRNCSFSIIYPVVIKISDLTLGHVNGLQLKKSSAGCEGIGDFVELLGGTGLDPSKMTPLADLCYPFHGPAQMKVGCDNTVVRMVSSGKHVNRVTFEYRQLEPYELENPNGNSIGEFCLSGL

[16] = target: T5, Polyadenylate-binding protein 1 (Homo sapiens, UniProt P11940); experiment: MLLE binding blockers, Cy5 peptide tracer – biochemical, fluorescence polarization, Cy5-PAM2 peptide, secondary, miRNA deadenylation inhibitor project, dose response (AID 602260); format: functional; conditions: read-out: IC50_Mean
T5 sequence (P11940 whole entry, the tested form may be a part): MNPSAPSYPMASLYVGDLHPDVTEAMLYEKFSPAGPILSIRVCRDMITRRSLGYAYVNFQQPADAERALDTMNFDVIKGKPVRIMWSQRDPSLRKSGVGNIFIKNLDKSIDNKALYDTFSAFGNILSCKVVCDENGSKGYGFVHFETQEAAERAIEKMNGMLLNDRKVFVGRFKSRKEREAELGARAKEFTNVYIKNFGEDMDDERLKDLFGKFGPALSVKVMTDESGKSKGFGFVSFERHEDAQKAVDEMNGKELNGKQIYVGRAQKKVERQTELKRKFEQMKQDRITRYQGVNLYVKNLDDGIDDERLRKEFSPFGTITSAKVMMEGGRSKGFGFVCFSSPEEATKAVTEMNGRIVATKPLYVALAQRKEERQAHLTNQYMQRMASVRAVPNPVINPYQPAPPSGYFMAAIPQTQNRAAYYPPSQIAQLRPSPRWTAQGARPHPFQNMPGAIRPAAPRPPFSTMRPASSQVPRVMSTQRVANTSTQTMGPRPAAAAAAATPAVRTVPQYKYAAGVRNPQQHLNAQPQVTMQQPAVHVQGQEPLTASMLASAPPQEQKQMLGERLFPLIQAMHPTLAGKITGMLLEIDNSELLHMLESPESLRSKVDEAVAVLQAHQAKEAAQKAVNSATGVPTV

[17] = target: T5, Polyadenylate-binding protein 1; experiment: MLLE domain peptide-binding blockers, IC50 – biochemical, fluorescence polarization, FITC-PAM2 peptide, dose response (AID 602259); format: functional; conditions: read-out: IC50_Mean
[18] = target: T6, Calpain-2 catalytic subunit (Sus scrofa, UniProt P43367); experiment: m-calpain protease blockers, concentration series – biochemical, fluorogenic peptide substrate, dose response (AID 1420); format: functional
T6 sequence (P43367 whole entry): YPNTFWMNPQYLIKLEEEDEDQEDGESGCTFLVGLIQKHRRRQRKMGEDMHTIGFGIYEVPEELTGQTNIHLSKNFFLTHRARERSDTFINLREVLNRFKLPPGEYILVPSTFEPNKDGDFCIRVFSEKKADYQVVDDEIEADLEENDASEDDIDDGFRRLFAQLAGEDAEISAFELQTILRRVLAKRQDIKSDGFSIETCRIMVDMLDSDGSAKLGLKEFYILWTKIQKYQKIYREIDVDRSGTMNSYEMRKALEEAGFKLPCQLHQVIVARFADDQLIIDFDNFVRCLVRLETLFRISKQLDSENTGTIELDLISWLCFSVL

[19] = target: T7, RNA-binding protein pos-1 (Caenorhabditis elegans, UniProt G5EF15); experiment: disruptors of C. elegans POS-1 RNA interaction – biochemical, fluorescence polarization, dose response (AID 1964);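 also: purified POS-1 fused to maltose binding protein made in E. coli; potency of compounds blocking POS-1 binding to fluorescent RNA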
T7 sequence (G5EF15 whole entry): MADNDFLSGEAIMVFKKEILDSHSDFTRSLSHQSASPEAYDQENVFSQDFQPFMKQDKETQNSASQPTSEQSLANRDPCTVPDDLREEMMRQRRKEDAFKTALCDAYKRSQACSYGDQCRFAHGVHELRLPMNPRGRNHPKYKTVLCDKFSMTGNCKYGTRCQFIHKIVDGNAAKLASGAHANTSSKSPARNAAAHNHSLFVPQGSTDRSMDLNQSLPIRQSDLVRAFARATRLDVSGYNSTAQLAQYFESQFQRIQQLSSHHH

[20] = target: T8, Zinc finger protein mex-5 (Caenorhabditis elegans, UniProt Q9XUB2); experiment: potency of MEX-5 RNA-binding blockers – biochemical, C. elegans, fluorescence polarization, dose response (AID 1960)
T8 sequence (Q9XUB2 whole entry): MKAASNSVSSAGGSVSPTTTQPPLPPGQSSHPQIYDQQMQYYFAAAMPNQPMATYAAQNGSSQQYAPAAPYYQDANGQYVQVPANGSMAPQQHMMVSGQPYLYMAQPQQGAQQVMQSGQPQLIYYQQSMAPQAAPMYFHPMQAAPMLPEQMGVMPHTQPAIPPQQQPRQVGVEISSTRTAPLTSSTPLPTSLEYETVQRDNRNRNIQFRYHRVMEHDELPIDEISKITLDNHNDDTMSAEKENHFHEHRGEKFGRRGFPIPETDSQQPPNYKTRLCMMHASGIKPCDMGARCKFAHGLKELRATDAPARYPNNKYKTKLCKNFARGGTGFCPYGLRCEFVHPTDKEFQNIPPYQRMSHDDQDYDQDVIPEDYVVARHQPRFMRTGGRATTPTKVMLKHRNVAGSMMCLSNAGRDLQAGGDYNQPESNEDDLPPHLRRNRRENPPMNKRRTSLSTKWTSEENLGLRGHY

Cc1cnn(-c2cc(N/N=C/c3ccccc3F)ncn2)c1
EC50 [1]: 12.7 µM (active) | AC50 [2]: 1.26 µM (inconclusive) | EC50 [3]: 21 µM (active)

CC(=O)c1cccc(-c2ccnc3c2CC(C(=O)Nc2ccc(C(C)C)cc2)O3)c1 (stereo not drawn)
IC50 [4]: 10.8 µM (active) | IC50 [5]: 6.77 µM (active)

Cc1ccc(Cl)cc1N1CCN(C(=O)c2cn(C)c(=O)c3c2c2ccccc2n3C)CC1
EC50 [6]: 12.4 µM (active) | EC50 [7]: 20.5 µM (active) | EC50 [8]: 9.73 µM (active) | EC50 [9]: 3.51 µM (active) | EC50 [10]: 22.8 µM (active) | EC50 [11]: 11.4 µM (active) | EC50 [1]: 3.36 µM (active) | EC50 [3]: 4.17 µM (active)

Cc1cc(=O)oc(C)c1C(=O)NCCNC(=O)c1c(C)cc(=O)oc1C
EC50 [12]: > 112 µM (not active) | EC50 [13]: 28.8 µM (active)

COc1ccc(-c2nn(-c3ccccc3)cc2/C=C/C(=O)O)cc1[N+](=O)[O-]
IC50 [4]: 12.1 µM (active) | IC50 [5]: 13.6 µM (active)

CCOc1ccccc1NC(=O)COC(=O)Cc1cccs1
EC50 [12]: > 112 µM (not active) | EC50 [13]: > 112 µM (not active)

CCOc1ccc(NC(=O)c2ccc3c(=O)n(-c4ccc(OC)cc4OC)c(=S)[nH]c3c2)cc1
EC50 [8]: > 150 µM (not active) | EC50 [9]: 7.86 µM (active) | EC50 [10]: 12.4 µM (active) | EC50 [14]: > 195 µM (not active)

CCOC(=O)c1cc2c(=O)n3cccc(C)c3nc2n(C)c1=N
EC50 [1]: 6.72 µM (active) | EC50 [3]: 4.97 µM (active)

CN(C(=O)COC(=O)c1cc(O)nc2ccccc12)c1c(N)n(Cc2ccccc2)c(=O)[nH]c1=O
EC50 [14]: > 195 µM (not active)

CCCNC(=O)N1CCCC(C(=O)c2cccc(Cl)c2)C1 (stereo not drawn)
EC50 [14]: > 195 µM (not active)

Cc1cc(=O)oc2cc(OCCSCCN3CCCC3)ccc12
EC50 [12]: > 112 µM (not active) | EC50 [13]: > 112 µM (not active)

O=C(CSc1ncnc2c1nnn2Cc1ccccc1)NC1CCCCC1
IC50 [4]: 24.3 µM (inactive) | IC50 [5]: 23.6 µM (inactive)

CCCc1nc2sc3c(c2c(=O)n1NC(=O)CCC(=O)OC)CCCC3
EC50 [12]: > 112 µM (not active) | EC50 [13]: > 112 µM (not active)

N#C/C(=C\c1ccccc1[N+](=O)[O-])C(=O)NC1CCCCC1
EC50 [15]: > 53 µM (inactive) | IC50 [16]: > 66 µM (inactive) | IC50 [17]: > 66 µM (inactive)

CCCNS(=O)(=O)c1ccc(OCC(=O)N2CCN(C)CC2)cc1
EC50 [14]: > 195 µM (not active)

O=C(COC(=O)C1CCCCC1)Nc1cc([N+](=O)[O-])ccc1F
IC50 [4]: 7.45 µM (active) | IC50 [5]: 8.3 µM (active) | IC50 [18]: > 50 µM (not active)

Nc1c(NC(=O)CC[n+]2ccccc2)cccc1[N+](=O)[O-]
EC50 [14]: 7.93 µM (active)

CCn1cc(C(=O)NCc2ccc(Cl)cc2)c(=O)c2cc(S(=O)(=O)N(C)C)ccc21
IC50 [4]: 9.03 µM (active) | IC50 [5]: 8.74 µM (active)

Cn1cccc1/C=C1\C(=O)NC(=O)N(CCC2=CCCCC2)C1=O
EC50 [19]: 230 µM (inconclusive) | EC50 [1]: 67.2 µM (active) | EC50 [3]: 82.1 µM (active) | EC50 [20]: 35.6 µM (inconclusive)

Cc1ccc(C)c(S(=O)(=O)N2CCN(C(=O)Cc3ccc(S(=O)(=O)N4CCOCC4)s3)CC2)c1
IC50 [4]: 6.49 µM (active) | IC50 [5]: 7.72 µM (active)

CCN1C(=O)C(CC(=O)Nc2ccc(OC)cc2)N(Cc2ccc3c(c2)OCO3)C1=S (stereo not drawn)
EC50 [14]: > 195 µM (not active)

CC(C)(C)N(Cc1ccccc1)C(=O)COC(=O)c1cccc([N+](=O)[O-])c1
IC50 [4]: 4.39 µM (active) | IC50 [5]: 2.97 µM (active)

CCC(/N=c1\cc(-c2ccc(OC)c(OC)c2)oc2ccc(C)cc12)C(=O)O (stereo not drawn)
EC50 [14]: > 195 µM (not active)
